A value given as a limit tells only on which side of the number the result lay.

Consider 53 compounds from the supplement of paper PMC6580486.

In assay [1] the test system is PCB490-3 (human epithelioid sarcoma primary culture). On the procedure: (§1)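 Roche open-access kinase inhibitor screen (223 compounds) on human epithelioid sarcoma primary cultures from three spatially distinct regions of tumor PCB490. 384-well plates, 72 h, CellTiter-Glo viability; IC50 by Hill curve fit. 100000 nM = no IC50 reached. Compound ids carry a plate-well prefix, which is stripped.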
Assay [2] relates to PCB490-5 (human epithelioid sarcoma primary culture). On the procedure: as §1
For assay [3], the system named is PCB490-4 (human epithelioid sarcoma primary culture). On the procedure:
as §1

The test system of assay [4] is U23674 (mouse alveolar rhabdomyosarcoma primary culture).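 Note: alveolar rhabdomyosarcoma tumor culture.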

Regarding `Cn1c(=O)c(Oc2ccc(F)cc2F)cc2cnc(NC(C)(C)CO)nc21`, the IC50 cell viability in assay [1], in assay [2] and in assay [3] was greater than 100 µM each time.
Take `CNCC1CCn2c(c(C3=C(c4cn(C)c5ccccc45)C(=O)NC3=O)c3ccccc32)C1` (stereo not given): the IC50 cell viability is 0.89 µM in assay [1], greater than 100 µM in assay [2] and greater than 100 µM in assay [3].
For `O=C1NC(=NCCc2ccccc2F)S/C1=C\c1ccc2ncccc2c1`, the IC50 cell viability in assay [1], in assay [2] and in assay [3] was greater than 100 µM in each case.
As for `Cn1cc(C2=C(c3cn(C)c4ccc(Cl)cc34)C(=O)NC2=O)c2ccccc21`, the IC50 cell viability in assay [1], in assay [2] and in assay [3] was greater than 100 µM throughout.
Turning to `O=C1NC(=NCc2cccs2)O/C1=C\c1ccc2ncccc2c1`, the IC50 cell viability in assay [1], in assay [2] and in assay [3] was greater than 100 µM each time.
In the case of `Nc1c(C(=O)c2cccc(-c3cccnc3)c2)cnn1-c1ccc(F)cc1F`, the IC50 cell viability in assay [1], in assay [2] and in assay [3] was greater than 100 µM throughout.
As to `O=C1NC(=NCc2c(Cl)cccc2Cl)S/C1=C\c1ccc2ncccc2c1`, the IC50 cell viability in assay [1], in assay [2] and in assay [3] was greater than 100 µM each time.
Turning to `Cn1cc(C2=C(c3cccnc3)C(=O)NC2=O)c2ccccc21`, the IC50 cell viability in assay [1], in assay [2] and in assay [3] was greater than 100 µM in each case.
In the case of `Cn1cc(C2=C(c3cn(CCCO)c4ccccc34)C(=O)NC2=O)c2ccccc21`, the IC50 cell viability in assay [1], in assay [2] and in assay [3] was greater than 100 µM each time.
Regarding `Cc1ccc(C)c(C2=C(c3cn(C)c4ccccc34)C(=O)NC2=O)c1`, the IC50 cell viability in assay [1], in assay [2] and in assay [3] was greater than 100 µM in each case.
Consider `Cn1cc(C2=C(c3ccsc3)C(=O)NC2=O)c2ccccc21`, for which the IC50 cell viability in assay [1], in assay [2] and in assay [3] was greater than 100 µM in each case.
As to `N#Cc1ccc(C(=O)c2cnn(-c3ccc(F)cc3)c2N)cc1`, the IC50 cell viability in assay [1], in assay [2] and in assay [3] was greater than 100 µM in each case.
In the case of `COc1ccc(F)cc1C(=O)c1cnc(NC2CCN(S(C)(=O)=O)CC2)nc1N`, the IC50 cell viability in assay [1], in assay [2] and in assay [3] was greater than 100 µM in each case.
Turning to `Nc1c(C(=O)c2ccc(C#CCN3CCOCC3)cc2)cnn1-c1ccc(F)cc1`, the IC50 cell viability in assay [1], in assay [2] and in assay [3] was greater than 100 µM throughout.
In the case of `COc1ccc(C2=C(c3cn(C)c4ccccc34)C(=O)NC2=O)cc1OC`, the IC50 cell viability in assay [1], in assay [2] and in assay [3] was greater than 100 µM in each case.
As for `Cn1cc(C2=C(c3ccc(OCC(O)CO)cc3)C(=O)NC2=O)c2ccccc21` (stereo not given), the IC50 cell viability in assay [1], in assay [2] and in assay [3] was greater than 100 µM each time.
In the case of `CN=C1NC(=O)/C(=C/c2ccc3ncccc3c2)S1`, the IC50 cell viability in assay [1], in assay [2] and in assay [3] was greater than 100 µM throughout.
As to `COc1ccc(O)c(C(=O)c2ccc(C(=O)O[C@@H]3CCCNC[C@H]3NC(=O)c3ccncc3)cc2)c1F`, the IC50 cell viability in assay [1], in assay [2] and in assay [3] was greater than 100 µM in each case.
Regarding `CSc1c(C2=C(c3cn(C)c4ccccc34)C(=O)NC2=O)c2ccccc2n1C`, the IC50 cell viability in assay [1], in assay [2] and in assay [3] was greater than 100 µM in each case.
Turning to `Cn1c(-c2ccncc2)c(-c2ccc(F)cc2)c2ncccc21`, the IC50 cell viability in assay [1], in assay [2] and in assay [3] was greater than 100 µM each time.
On to `CS(=O)(=O)N1CCC(n2c(=O)c(Oc3ccc(F)cc3F)cc3cnc(NC4CCOCC4)nc32)CC1`, for which the IC50 cell viability in assay [1], in assay [2] and in assay [3] was greater than 100 µM each time.
Turning to `Cn1c(=O)c(Oc2ccccc2)cc2cnc(NC3CCOCC3)nc21`, the IC50 cell viability in assay [1], in assay [2] and in assay [3] was greater than 100 µM each time.
Consider `CC(C)c1[nH]nc2c1N=C(c1ccccc1Cl)c1cc([N+](=O)[O-])ccc1N2`, for which the IC50 cell viability in assay [1], in assay [2] and in assay [3] was greater than 100 µM in each case.
On to `NC1=NC(=O)/C(=C/c2ccc3ncccc3c2)S1`, for which the IC50 cell viability in assay [1], in assay [2] and in assay [3] was greater than 100 µM throughout.
Consider `O=c1c(Oc2ccc(F)cc2F)cc2cnc(NC3CCOCC3)nc2n1CCCO`, for which the IC50 cell viability in assay [1], in assay [2] and in assay [3] was greater than 100 µM each time.
With `Nc1c(C(=O)c2cccc(CCCN3CCOCC3)c2)cnn1-c1ccc(F)cc1`, the IC50 cell viability in assay [1], in assay [2] and in assay [3] was greater than 100 µM each time.
For `COc1ccc(OC)c(C2=C(c3cn(C)c4ccccc34)C(=O)NC2=O)c1`, the IC50 cell viability in assay [1], in assay [2] and in assay [3] was greater than 100 µM each time.
For the compound `O=C1NC(=N[C@H](CO)Cc2ccccc2)S/C1=C\c1ccc2ncccc2c1`, the IC50 cell viability in assay [1], in assay [2] and in assay [3] was greater than 100 µM throughout.
Regarding `CC(=O)N[C@@H](Cc1ccc(OP(=O)(O)O)cc1)C(=O)N[C@H]1CCC(=O)N2CCC[C@@H](C(=O)NCc3cccc4ccccc34)N2C1=O`, the IC50 cell viability in assay [1], in assay [2] and in assay [3] was greater than 100 µM in each case.
Consider `COc1cc[nH]c1/C=C1\C(=O)Nc2ccccc21`, for which the IC50 cell viability in assay [1], in assay [2] and in assay [3] was greater than 100 µM throughout.
In the case of `Nc1c(C(=O)c2cccc(OC[C@H](O)CO)c2)cnn1-c1ccc(F)cc1`, the IC50 cell viability in assay [1], in assay [2] and in assay [3] was greater than 100 µM each time.
Regarding `Cn1cc(C2=C(c3cn(CCCN/C(N)=N/[N+](=O)[O-])c4ccccc34)C(=O)NC2=O)c2ccccc21`, the IC50 cell viability in assay [1], in assay [2] and in assay [3] was greater than 100 µM throughout.
As to `CN[C@H](C#Cc1c(F)ccc2c1/C(=C/c1[nH]ccc1OC)C(=O)N2)CO`, the IC50 cell viability in assay [1] was greater than 100 µM; in assay [2] it was 1.77 µM; in assay [3], greater than 100 µM.
Consider `Nc1c(C(=O)c2cccc(-c3ccncc3)c2)cnn1-c1ccc(F)cc1F`, for which the IC50 cell viability in assay [1], in assay [2] and in assay [3] was greater than 100 µM throughout.
Turning to `Nc1c(C(=O)c2ccc(-c3cccnc3)cc2)cnn1-c1ccc(F)cc1`, the IC50 cell viability in assay [1], in assay [2] and in assay [3] was greater than 100 µM throughout.
As for `O=C1NC(=N[C@@H]2C[C@H]2c2ccccc2)S/C1=C\c1ccc2ncccc2c1`, the IC50 cell viability in assay [1], in assay [2] and in assay [3] was greater than 100 µM throughout.
Turning to `CNCCCn1cc(C2=C(c3cn(C)c4ccccc34)C(=O)NC2=O)c2ccccc21`, the IC50 cell viability in assay [1], in assay [2] and in assay [3] was greater than 100 µM each time.
For `Nc1c(C(=O)c2cccc(-c3cccnc3)c2)cnn1-c1ccc(F)cc1`, the IC50 cell viability in assay [1], in assay [2] and in assay [3] was greater than 100 µM each time.
Turning to `O=C1NC(=Nc2ccccc2)S/C1=C\c1ccc2ncccc2c1`, the IC50 cell viability in assay [1], in assay [2] and in assay [3] was greater than 100 µM each time.
`Nc1c(C(=O)c2cccc(-c3ccncc3)c2)cnn1-c1ccc(F)cc1`: the IC50 cell viability in assay [1], in assay [2] and in assay [3] was greater than 100 µM throughout.
With `O=C1NC(=NCCc2cccc(F)c2)S/C1=C\c1ccc2ncccc2c1`, the IC50 cell viability in assay [1], in assay [2] and in assay [3] was greater than 100 µM in each case.
In assay [4], `Fc1cccc(COc2ccc(Nc3ncnc4sc(-c5cccs5)cc34)cc2Cl)c1` returned an IC50 cell viability greater than 10 µM.
Same read-out and setting: then `CNC(=O)c1cncc(/C=C/c2c(Cl)cccc2Cl)c1`, with greater than 10 µM; and `COc1ccc(-c2nn3ncccc3c2-c2ccnc(Nc3cccc(C(F)(F)F)c3)n2)cc1`, with greater than 10 µM.
The same measure, in the same setting: for `NS(=O)(=O)c1ccc(N=Nc2c(O)[nH]c3ccc(C(=O)NCCc4cnc[nH]4)cc23)cc1` the value was greater than 10 µM.
Regarding `COc1cc(N2CCN(C(C)C)CC2)ccc1Nc1nc(Nc2ccc(F)cc2C(=O)NC[C@@H](O)CO)c2cc[nH]c2n1`, the IC50 cell viability in assay [4] is greater than 10 µM.
Compound `Cc1cc(O)cc(C)c1/C=C/c1cncc(C(=O)N(C)C)c1` gave an IC50 cell viability in assay [4] greater than 10 µM.
Compound `COc1ccc2[nH]c3c4[nH]c5ccc(OC)cc5c4c4c(c3c2c1)C(=O)NC4=O` gave an IC50 cell viability in assay [4] greater than 10 µM.
In assay [4], `COc1cc(C)c(N(C)C(=O)CN(C)C)cc1Nc1nc(Nc2cccc(F)c2C(N)=O)c2cc[nH]c2n1` gave an IC50 cell viability greater than 10 µM.
The compound `Nc1ncnc2occ(-c3ccc(NC(=O)Nc4cccc(C(F)(F)F)c4)cc3)c12` showed an IC50 cell viability in assay [4] of 5.2 µM.
In turn, `NC(=O)c1cc(-c2ccc(F)cc2)cc(-c2ccncc2)c1N` returned an IC50 cell viability in assay [4] greater than 10 µM.
In assay [4], `COc1cc(Nc2nccc(-c3cnn4ncccc34)n2)cc(OC)c1` displayed an IC50 cell viability of 4 µM.
Compound `COc1cccc(-n2cnc3c(N/N=C/c4ccncc4)ncnc32)c1` yielded an IC50 cell viability in assay [4] greater than 10 µM.
